Results published in ChEMBL document CHEMBL3046607, “Synthesis and Herbicidal Activity of New 1-Alkyl-3-aryloxypyrazole-4-carboxamide Derivatives” (J Pestic Sci, 2004).
Active and inactive are the calls of the source. No cut-off for these calls is given here.

Columns and labels:
[1] = test system: Echinochloa oryzicola; experiment: Pre-emergence herbicidal activity against Echinochloa oryzicola at 100 g a.i/ha measured after 14 days; assay type: functional, organism-based
[2] = test system: Cyperus difformis; experiment: Post-emergence herbicidal activity against Cyperus difformis assessed as bleaching of stem/leaf parts; assay type: functional, organism-based; note: test concentration or dose not given here
[3] = test system: Oryza sativa; experiment: Phytotoxicity against Oryza sativa cv. Koshihikari (rice) at 500 g a.i/ha measured after 14 days; assay type: organism-based; conditions: in vivo, 336 h
[4] = test system: Schoenoplectiella juncoides; experiment: Post-emergence herbicidal activity against Schoenoplectiella juncoides assessed as bleaching of stem/leaf parts; assay type: functional, organism-based; note: test concentration or dose not given here
[5] = test system: Rotala indica; experiment: Pre-emergence herbicidal activity against Rotala indica at 33 g a.i/ha measured after 14 days; assay type: functional, organism-based
[6] = test system: Cyperus difformis; experiment: Pre-emergence herbicidal activity against Cyperus difformis at 33 g a.i/ha measured after 14 days; assay type: functional, organism-based
[7] = test system: Lindernia procumbens; experiment: Pre-emergence herbicidal activity against Lindernia procumbens assessed as bleaching of stem/leaf parts; assay type: functional, organism-based
[8] = test system: Pontederia vaginalis; experiment: Pre-emergence herbicidal activity against Monochoria vaginalis at 33 g a.i/ha measured after 14 days; assay type: functional, organism-based
[9] = test system: Lindernia procumbens; experiment: Pre-emergence herbicidal activity against Lindernia procumbens at 33 g a.i/ha measured after 14 days; assay type: functional, organism-based
[10] = test system: Ammannia multiflora; experiment: Pre-emergence herbicidal activity against Ammannia multiflora at 100 g a.i/ha measured after 14 days; assay type: functional, organism-based
[11] = test system: Echinochloa oryzicola; experiment: Pre-emergence herbicidal activity against Echinochloa oryzicola at 33 g a.i/ha measured after 14 days; assay type: functional, organism-based
[12] = test system: Schoenoplectiella juncoides; experiment: Pre-emergence herbicidal activity against Schoenoplectiella juncoides at 100 g a.i/ha measured after 14 days; assay type: functional, organism-based
[13] = test system: Rotala indica; experiment: Pre-emergence herbicidal activity against Rotala indica at 500 g a.i/ha measured after 14 days; assay type: functional, organism-based
[14] = test system: Ammannia multiflora; experiment: Pre-emergence herbicidal activity against Ammannia multiflora assessed as bleaching of stem/leaf parts; assay type: functional, organism-based
[15] = test system: Elatine triandra; experiment: Pre-emergence herbicidal activity against Elatine triandra at 500 g a.i/ha measured after 14 days; assay type: functional, organism-based
[16] = test system: Pontederia vaginalis; experiment: Pre-emergence herbicidal activity against Monochoria vaginalis assessed as bleaching of stem/leaf parts; assay type: functional, organism-based
[17] = test system: Elatine triandra; experiment: Pre-emergence herbicidal activity against Elatine triandra assessed as bleaching of stem/leaf parts; assay type: functional, organism-based
[18] = test system: Ammannia multiflora; experiment: Pre-emergence herbicidal activity against Ammannia multiflora at 33 g a.i/ha measured after 14 days; assay type: functional, organism-based
[19] = test system: Cyperus difformis; experiment: Pre-emergence herbicidal activity against Cyperus difformis at 100 g a.i/ha measured after 14 days; assay type: functional, organism-based
[20] = test system: Rotala indica; experiment: Pre-emergence herbicidal activity against Rotala indica at 100 g a.i/ha measured after 14 days; assay type: functional, organism-based
[21] = test system: Pontederia vaginalis; experiment: Pre-emergence herbicidal activity against Monochoria vaginalis at 100 g a.i/ha measured after 14 days; assay type: functional, organism-based
[22] = test system: Lindernia procumbens; experiment: Pre-emergence herbicidal activity against Lindernia procumbens at 100 g a.i/ha measured after 14 days; assay type: functional, organism-based
[23] = test system: Pontederia vaginalis; experiment: Pre-emergence herbicidal activity against Monochoria vaginalis at 500 g a.i/ha measured after 14 days; assay type: functional, organism-based
[24] = test system: Schoenoplectiella juncoides; experiment: Pre-emergence herbicidal activity against Schoenoplectiella juncoides at 33 g a.i/ha measured after 14 days; assay type: functional, organism-based
[25] = test system: Cyperus difformis; experiment: Pre-emergence herbicidal activity against Cyperus difformis assessed as bleaching of stem/leaf parts; assay type: functional, organism-based
[26] = test system: Elatine triandra; experiment: Pre-emergence herbicidal activity against Elatine triandra at 100 g a.i/ha measured after 14 days; assay type: functional, organism-based
[27] = test system: Lindernia procumbens; experiment: Post-emergence herbicidal activity against Lindernia procumbens assessed as bleaching of stem/leaf parts; assay type: functional, organism-based; note: test concentration or dose not given here
[28] = test system: Echinochloa oryzicola; experiment: Pre-emergence herbicidal activity against Echinochloa oryzicola assessed as bleaching of stem/leaf parts; assay type: functional, organism-based
[29] = test system: Oryza sativa; experiment: Phytotoxicity against Oryza sativa cv. Koshihikari (rice) at 33 g a.i/ha measured after 14 days; assay type: organism-based; conditions: in vivo, 336 h
[30] = test system: Elatine triandra; experiment: Pre-emergence herbicidal activity against Elatine triandra at 33 g a.i/ha measured after 14 days; assay type: functional, organism-based
[31] = test system: Lindernia procumbens; experiment: Pre-emergence herbicidal activity against Lindernia procumbens at 500 g a.i/ha measured after 14 days; assay type: functional, organism-based
[32] = test system: Oryza sativa; experiment: Phytotoxicity against Oryza sativa cv. Koshihikari (rice) at 100 g a.i/ha measured after 14 days; assay type: organism-based; conditions: in vivo, 336 h
[33] = test system: Schoenoplectiella juncoides; experiment: Pre-emergence herbicidal activity against Schoenoplectiella juncoides at 500 g a.i/ha measured after 14 days; assay type: functional, organism-based
[34] = test system: Rotala indica; experiment: Post-emergence herbicidal activity against Rotala indica assessed as bleaching of stem/leaf parts; assay type: functional, organism-based
[35] = test system: Ammannia multiflora; experiment: Pre-emergence herbicidal activity against Ammannia multiflora at 500 g a.i/ha measured after 14 days; assay type: functional, organism-based
[36] = test system: Schoenoplectiella juncoides; experiment: Pre-emergence herbicidal activity against Schoenoplectiella juncoides assessed as bleaching of stem/leaf parts; assay type: functional, organism-based
[37] = test system: Ammannia multiflora; experiment: Post-emergence herbicidal activity against Ammannia multiflora assessed as bleaching of stem/leaf parts; assay type: functional, organism-based
[38] = test system: Rotala indica; experiment: Pre-emergence herbicidal activity against Rotala indica assessed as bleaching of stem/leaf parts; assay type: functional, organism-based
[39] = test system: Elatine triandra; experiment: Post-emergence herbicidal activity against Elatine triandra assessed as bleaching of stem/leaf parts; assay type: functional, organism-based; note: test concentration or dose not given here
[40] = test system: Pontederia vaginalis; experiment: Post-emergence herbicidal activity against Monochoria vaginalis assessed as bleaching of stem/leaf parts; assay type: functional, organism-based
[41] = test system: Cyperus difformis; experiment: Pre-emergence herbicidal activity against Cyperus difformis at 500 g a.i/ha measured after 14 days; assay type: functional, organism-based
[42] = test system: Echinochloa oryzicola; experiment: Post-emergence herbicidal activity against Echinochloa oryzicola assessed as bleaching of stem/leaf parts; assay type: functional, organism-based
[43] = test system: Echinochloa oryzicola; experiment: Pre-emergence herbicidal activity against Echinochloa oryzicola at 500 g a.i/ha measured after 14 days; assay type: functional, organism-based

Cn1cc(C(=O)Nc2ccccc2)c(Oc2cccc(C(F)(F)F)c2)n1
Activity [1]: Active
Activity [2]: Active
Activity [3]: Toxic
Activity [4]: Active
Activity [5]: Active
Activity [6]: Active
Activity [7]: Active
Activity [8]: Active
Activity [9]: Active
Activity [10]: Active
Activity [11]: inactive
Activity [12]: Active
Activity [13]: Active
Activity [14]: Active
Activity [15]: Active
Activity [16]: Active
Activity [17]: Active
Activity [18]: Active
Activity [19]: Active
Activity [20]: Active
Activity [21]: Active
Activity [22]: Active
Activity [23]: Active
Activity [24]: inactive
Activity [25]: Active
Activity [26]: Active
Activity [27]: Active
Activity [28]: Active
Activity [29]: Non-toxic
Activity [30]: Active
Activity [31]: Active
Activity [32]: Non-toxic
Activity [33]: Active
Activity [34]: Active
Activity [35]: Active
Activity [36]: Active
Activity [37]: Active
Activity [38]: Active
Activity [39]: Active
Activity [40]: Active
Activity [41]: Active
Activity [42]: Active
Activity [43]: Active

CCONC(=O)c1cn(C)nc1OCc1cccc(C(F)(F)F)c1
Activity [1]: Active
Activity [2]: Active
Activity [4]: Active
Activity [5]: Active
Activity [6]: Active
Activity [7]: Active
Activity [8]: Active
Activity [9]: Active
Activity [10]: Active
Activity [11]: Active
Activity [12]: Active
Activity [14]: Active
Activity [16]: Active
Activity [17]: Active
Activity [18]: Active
Activity [19]: Active
Activity [20]: Active
Activity [21]: Active
Activity [22]: Active
Activity [24]: Active
Activity [25]: Active
Activity [26]: Active
Activity [27]: Active
Activity [28]: Active
Activity [29]: Non-toxic
Activity [30]: Active
Activity [32]: Non-toxic
Activity [34]: Active
Activity [36]: Active
Activity [37]: Active
Activity [38]: Active
Activity [39]: Active
Activity [40]: Active
Activity [42]: Active

Cn1cc(C(=O)Nc2cccc(S(C)(=O)=O)c2)c(Oc2cccc(C(F)(F)F)c2)n1
Activity [1]: inactive
Activity [2]: Active
Activity [4]: Active
Activity [7]: Active
Activity [10]: inactive
Activity [12]: inactive
Activity [14]: Active
Activity [16]: Active
Activity [17]: Active
Activity [19]: inactive
Activity [20]: inactive
Activity [21]: inactive
Activity [22]: inactive
Activity [25]: Active
Activity [26]: inactive
Activity [27]: Active
Activity [28]: Active
Activity [32]: Non-toxic
Activity [34]: Active
Activity [36]: Active
Activity [37]: Active
Activity [38]: Active
Activity [39]: Active
Activity [40]: Active
Activity [42]: Active

CCONC(=O)c1cn(C)nc1Oc1cccc(C(F)(F)F)c1
Activity [1]: Active
Activity [2]: Active
Activity [3]: Toxic
Activity [4]: Active
Activity [7]: Active
Activity [10]: inactive
Activity [12]: inactive
Activity [13]: Active
Activity [14]: Active
Activity [15]: Active
Activity [16]: Active
Activity [17]: Active
Activity [19]: inactive
Activity [20]: inactive
Activity [21]: inactive
Activity [22]: inactive
Activity [23]: Active
Activity [25]: Active
Activity [26]: inactive
Activity [27]: Active
Activity [28]: Active
Activity [31]: Active
Activity [32]: Non-toxic
Activity [33]: Active
Activity [34]: Active
Activity [35]: Active
Activity [36]: Active
Activity [37]: Active
Activity [38]: Active
Activity [39]: Active
Activity [40]: Active
Activity [41]: Active
Activity [42]: Active
Activity [43]: Active

Cn1cc(C(=O)Nc2ccccc2)c(OCc2cccc(C(F)(F)F)c2)n1
Activity [1]: Active
Activity [2]: Active
Activity [4]: Active
Activity [7]: Active
Activity [10]: Active
Activity [12]: inactive
Activity [14]: Active
Activity [16]: Active
Activity [17]: Active
Activity [19]: inactive
Activity [20]: Active
Activity [21]: inactive
Activity [22]: Active
Activity [25]: Active
Activity [26]: Active
Activity [27]: Active
Activity [28]: Active
Activity [32]: Non-toxic
Activity [34]: Active
Activity [36]: Active
Activity [37]: Active
Activity [38]: Active
Activity [39]: Active
Activity [40]: Active
Activity [42]: Active
